Series [1] addresses T1, human A2A adenosine receptors (Homo sapiens, UniProt P29274).
T1 construct: expressed in transfected cells; host or cells: CHO cells
Briefly: Displacement of [^3H]CGS21680 binding, human A2A adenosine receptors in CHO cells (agonist radioligand). The following applies: human A2A, CHO cells, [^3H]CGS21680; read-out: Ki(A2A). Displacement of [^3H]CGS21680 binding to human A2A adenosine receptors exp. in CHO cells.

The target of series [2] is T2, human A1 receptors (Homo sapiens, UniProt P30542).
T2 construct: expressed in transfected cells; host or cells: CHO cells
T2 sequence (P30542 1-326): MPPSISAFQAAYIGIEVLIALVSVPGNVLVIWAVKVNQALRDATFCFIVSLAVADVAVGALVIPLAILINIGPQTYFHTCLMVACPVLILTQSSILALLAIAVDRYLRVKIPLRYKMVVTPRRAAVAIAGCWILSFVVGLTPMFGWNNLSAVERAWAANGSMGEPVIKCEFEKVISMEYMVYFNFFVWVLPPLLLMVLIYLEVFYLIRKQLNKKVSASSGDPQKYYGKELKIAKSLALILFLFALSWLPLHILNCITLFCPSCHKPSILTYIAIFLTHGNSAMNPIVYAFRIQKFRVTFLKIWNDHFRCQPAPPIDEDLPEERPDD
Briefly: [^3H] DPCPX binding to human A1 receptors expressed in CHO cells (antagonist radioligand). The following applies: human A1, CHO cells, antagonist radioligand; read-out: [^3H] DPCPX binding to human A1 receptors expressed in CHO cells Ki. As to the method: Binding assay methodology for the human data with antagonist radioligands. […] Arch. […] The cells were grown adherently and maintained in Dulbecco's Modified Eagles Medium with nutrient mixture F12 (DMEM/F12) without nucleosides, containing 10% fetal calf serum, penicillin (100 U/ml), streptomycin (100 μg/ml), L-glutamine (2 mM) and Geneticin (G418, 0.2 mg/ml) at 37° C. in 5% CO2/95% air. Cells were split 2 or 3 times weekly at a ratio between 1:5 and 1:20. For membrane preparation the culture medium was removed and the cells were washed with PBS and scraped off T75 flasks in ice-cold hypotonic buffer (5 mM Tris HCl, 2 mM EDTA, pH 7.4). The cell suspension was homogenized with Polytron and the homogenate was spun for 10 min at 1,000×g. The supernatant was then centrifuged for 30 min at 100,000×g. The membrane pellet was resuspended in 50 mM Tris HCl buffer pH 7.4 (for A3 adenosine receptors: 50 mM Tris HCl, 10 mM MgCl2, 1 mM EDTA) and incubated with 3 UI/ml of Adenosine deaminase for 30 min at 37° C. Then the suspension was frozen at −80° C. HEK 293 cells transfected with the human recombinant A2B adenosine receptor were obtained from Receptor Biology, Inc. (Beltsville, Md., USA).
Displacement experiments were performed for 120 min at 25° C. in 0.2 ml of 50 mM Tris HCl buffer pH 7.4 containing 1 nM [3H]-DPCPX, diluted membranes (50 μg of protein/assay) and at least 6-8 different concentrations of antagonists studied. Non-specific binding was determined in the presence of 10 μM of CHA and this was always ≦10% of the total binding.

For series [3], the target named is T3, human A2A receptors (Homo sapiens, UniProt P29274).
T3 construct: expressed in transfected cells; host or cells: CHO cells
The series can be described thus: [^3H] SCH58261 binding to human A2A receptors expressed in CHO cells (antagonist radioligand). The following applies: human A2A, CHO cells, antagonist radioligand; read-out: [^3H] SCH58261 binding to human A2A receptors expressed in CHO cells Ki. The protocol: (§1) Binding assay methodology for the human data with antagonist radioligands. […] Arch. Pharmacol. 357: 1-9, (1998). The cells were grown adherently and maintained in Dulbecco's Modified Eagles Medium with nutrient mixture F12 (DMEM/F12) without nucleosides, containing 10% fetal calf serum, penicillin (100 U/ml), streptomycin (100 μg/ml), L-glutamine (2 mM) and Geneticin (G418, 0.2 mg/ml) at 37° C. in 5% CO2/95% air. Cells were split 2 or 3 times weekly at a ratio between 1:5 and 1:20. For membrane preparation the culture medium was removed and the cells were washed with PBS and scraped off T75 flasks in ice-cold hypotonic buffer (5 mM Tris HCl, 2 mM EDTA, pH 7.4). The cell suspension was homogenized with Polytron and the homogenate was spun for 10 min at 1,000×g. The supernatant was then centrifuged for 30 min at 100,000×g. The membrane pellet was resuspended in 50 mM Tris HCl buffer pH 7.4 (for A3 adenosine receptors: 50 mM Tris HCl, 10 mM MgCl2, 1 mM EDTA) and incubated with 3 UI/ml of Adenosine deaminase for 30 min at 37° C. Then the suspension was frozen at −80° C. HEK 293 cells transfected with the human recombinant A2B adenosine receptor were obtained from Receptor Biology, Inc. (Beltsville, Md., USA).
Binding of [^3H]-SCH 58261 to CHO cells transfected with the human recombinant A2A adenosine receptors (50 μg of protein/assay) was performed using 0.2 ml 50 mM Tris HCl buffer, 10 mM MgCl2 pH 7.4 and at least 6-8 different concentrations of antagonists studied for an incubation time of 30 min at 25° C.

Series [4] addresses T4, human hA2B receptors (Homo sapiens, UniProt P29275).
T4 construct: host or cells: HEK 293 cells
T4 sequence (P29275 1-332): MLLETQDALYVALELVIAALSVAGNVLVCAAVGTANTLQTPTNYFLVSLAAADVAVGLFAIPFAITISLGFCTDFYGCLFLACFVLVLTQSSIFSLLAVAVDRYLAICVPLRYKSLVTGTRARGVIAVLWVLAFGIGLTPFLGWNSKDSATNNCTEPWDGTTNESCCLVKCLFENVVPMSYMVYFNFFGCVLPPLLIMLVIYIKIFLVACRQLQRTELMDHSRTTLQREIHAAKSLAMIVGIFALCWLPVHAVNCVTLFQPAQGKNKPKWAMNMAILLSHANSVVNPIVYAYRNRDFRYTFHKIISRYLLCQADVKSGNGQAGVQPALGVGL
The series can be described thus: [^3H] DPCPX binding to human hA2B receptors expressed in HEK293 cells (antagonist radioligand). The following applies: human A2B, HEK293 cells, antagonist radioligand; read-out: [^3H] DPCPX binding to human hA2B receptors expressed in HEK293 cells Ki. As to the method:
as §1
Competition experiments of [^3H]-DPCPX to HEK-293 cells transfected with the human recombinant A^2B adenosine receptor were performed for 60 min at 25° C. in 0.1 ml of 50 mM Tris HCl buffer, 10 mM MgCl2, 1 mM EDTA, 0.1 mM benzamidine pH 7.4, 2 IU/ml adenosine deaminase containing 34 nM [^3H]-DPCPX, diluted membranes (20 μg of protein/assay) and at least 6-8 different concentrations of selected compounds.

Series [5] deals with T5, human A3 receptors (Homo sapiens, UniProt P0DMS8).
T5 construct: expressed in transfected cells; host or cells: CHO cells
T5 sequence (P0DMS8 1-318): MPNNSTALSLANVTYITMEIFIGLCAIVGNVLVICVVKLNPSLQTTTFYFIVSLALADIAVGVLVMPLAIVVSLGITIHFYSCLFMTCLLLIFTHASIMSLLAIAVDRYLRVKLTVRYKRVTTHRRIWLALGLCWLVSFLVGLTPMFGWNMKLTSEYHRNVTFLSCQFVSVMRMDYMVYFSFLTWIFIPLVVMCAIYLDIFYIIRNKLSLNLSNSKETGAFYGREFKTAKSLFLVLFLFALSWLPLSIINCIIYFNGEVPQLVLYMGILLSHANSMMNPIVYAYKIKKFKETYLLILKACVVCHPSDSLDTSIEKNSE
Briefly: [^3H] MRE3008F20 binding to human A3 receptors expressed in CHO cells (antagonist radioligand). The following applies: human A3, CHO cells, antagonist radioligand; read-out: [^3H] MRE3008F20 binding to human A3 receptors expressed in CHO cells Ki. As to the method:
as §1
Binding of [^3H]-MRE 3008F20 to CHO cells transfected with the human recombinant A3 adenosine receptors was performed according to Varani et al., 2000. Competition experiments were carried out in duplicate in a final volume of […] in test tubes containing 1 nM [^3H]-MRE 3008F20, 50 mM Tris HCl buffer, 10 mM MgCl2, 1 mM EDTA pH 7.4 and 100 μl of diluted membranes (50 μg of protein/assay) and at least 8-10 different concentrations of examined antagonists. Incubation time was 120 min at 4° C., according to the results of previous time-course experiments.

Series [6] has as its target T6, human A1 adenosine receptors (Homo sapiens, UniProt P30542).
T6 sequence (P30542 1-326): T2 sequence (P30542 1-326)
The series can be described thus: Displacement of [^3H]CHA binding, human A1 adenosine receptors in CHO cells (agonist radioligand).

Series [7] has as its target T7, human A3 adenosine receptors (Homo sapiens, UniProt P0DMS8).
T7 sequence (P0DMS8 1-318): T5 sequence (P0DMS8 1-318)
The following applies: for A1/A3: ratio Ki(A1)/Ki(A3), agonist radioligands.

T1 sequence (P29274 whole entry): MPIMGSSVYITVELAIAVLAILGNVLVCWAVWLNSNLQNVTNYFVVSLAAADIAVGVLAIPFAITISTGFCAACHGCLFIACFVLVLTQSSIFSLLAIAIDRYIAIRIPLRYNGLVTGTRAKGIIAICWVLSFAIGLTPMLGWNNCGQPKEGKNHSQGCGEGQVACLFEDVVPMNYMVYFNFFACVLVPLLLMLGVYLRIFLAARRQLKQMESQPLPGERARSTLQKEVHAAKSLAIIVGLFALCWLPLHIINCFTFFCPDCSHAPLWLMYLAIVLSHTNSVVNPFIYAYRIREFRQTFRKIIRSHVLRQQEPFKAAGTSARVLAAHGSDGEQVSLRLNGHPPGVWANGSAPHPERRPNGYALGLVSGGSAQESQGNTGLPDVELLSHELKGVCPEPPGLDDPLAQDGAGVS
T3 sequence (P29274 whole entry): as above

Consider `CCCCCNS(=O)(=O)c1ccc(NC(=O)Nc2ncnc3c2ncn3[C@@H]2O[C@H](C(=O)NCC)[C@@H](O)[C@H]2O)cc1` [Compound 87, 1-Deoxy-1-[6-[[[[4-[N-(pentyl)aminosulfonyl]phenyl]-amino]carbonyl]amino]-9H-purin-9-yl]-N-ethyl-β-D-ribofuranuronamide], for which the melting point (usually the temperature of the solid-liquid transition) is 199 °C. In series [1], the Ki (usually a dissociation constant, usually derived from enzyme kinetics or from competition with a known ligand) is greater than 1000 nM. In series [2], the Ki is greater than 1000 nM. Further, the inhibitory constant (Ki) in series [3] is greater than 1000 nM. In series [4], the Ki was greater than 1000 nM. The Ki in series [5] amounted to 886 nM. Also, the inhibition constant Ki in series [6] worked out at 445 nM. In series [7], the affinity corresponds to a Ki of 80 nM and the A1/A3 was found to be 5.56.
In the case of `CCNC(=O)[C@H]1O[C@@H](n2cnc3c(NC(=O)Nc4ccc(S(=O)(=O)NC56CC7CC(CC(C7)C5)C6)cc4)ncnc32)[C@H](O)[C@@H]1O` [Compound 93, 1-Deoxy-1-[6-[[[[4-[N-(adamantan-1-yl)sulfonyl]phenyl]amino]carbonyl]-amino]-9H-purin-9-yl]-N-ethyl-β-D-ribofuranuronamide], the melting point was 192 °C. In addition, the Ki in series [1] is greater than 1000 nM. In series [2], the inhibitory constant (Ki) was greater than 1000 nM. Moreover, the inhibition constant (Ki) in series [3] is greater than 1000 nM. For the same compound, in series [4], the Ki was greater than 1000 nM. The Ki in series [5] was 310 nM. For the same compound, the affinity in series [6] corresponds to a Ki of 240 nM. Further, in series [7], the Ki came out at 35 nM and the A1/A3 was 7.5.
`CCNC(=O)[C@H]1O[C@@H](n2cnc3c(NC(=O)Nc4ccc(S(=O)(=O)N5CCOCC5)cc4)ncnc32)C(O)C1O` (stereo partly drawn) [Compound 84, 1-Deoxy-1-[6-[[[[4-[(morpholine-1-yl)sulfonyl]phenyl]amino]carbonyl]amino]-9H-purin-9-yl]-N-ethyl-β-D-ribofuranuronamide]: the melting point lay within 204 to 205 °C. Moreover, the inhibitory constant (Ki) in series [1] is greater than 1000 nM. Besides, the inhibition constant Ki in series [2] is greater than 1000 nM. Besides, in series [3], the Ki was greater than 1000 nM. Moreover, the Ki in series [4] is greater than 1000 nM. Moreover, the Ki in series [5] was found to be 198 nM. In series [6], this compound showed a Ki of 725 nM. In addition, in series [7], the affinity, expressed as Ki, was 20 nM and the A1/A3 turned out to be 36.25.
Regarding `CCNC(=O)[C@H]1O[C@@H](n2cnc3c(NC(=O)Nc4ccc(S(=O)(=O)NC5CCCC5)cc4)ncnc32)[C@H](O)[C@@H]1O` [Compound 95, 1-Deoxy-1-[6-[[[[4-[N-(cyclopentyl)aminosulfonyl]phenyl]-amino]carbonyl]amino]-9H-purin-9-yl]-N-ethyl-β-D-ribofuranuronamide], the inhibition constant Ki is greater than 1000 nM in series [1]; greater than 1000 nM in series [2]; greater than 1000 nM in series [3]; greater than 1000 nM in series [4]; 140 nM in series [5]; 415 nM in series [6]. Moreover, in series [7], the inhibition constant (Ki) is 24 nM.
In turn, `CCNC(=O)[C@H]1O[C@@H](n2cnc3c(NC(=O)Nc4ccc(S(=O)(=O)NCC)cc4)ncnc32)[C@H](O)[C@@H]1O` [Compound 85, 1-Deoxy-1-[6-[[[[4-[N-(ethyl)aminosulfonyl]phenyl]amino]-carbonyl]amino]-9H-purin-9-yl]-N-ethyl-β-D-ribofuranuronamide] gave a melting point of 180 to 183 °C. Moreover, the inhibition constant Ki in series [1] is greater than 1000 nM. The inhibition constant (Ki) in series [2] is greater than 1000 nM. Also, the inhibitory constant (Ki) in series [3] was greater than 1000 nM. Moreover, in series [4], the Ki was greater than 1000 nM. Moreover, in series [5], the inhibition constant (Ki) turned out to be 237 nM. The affinity in series [6], expressed as Ki, was 250 nM. Besides, in series [7], the inhibitory constant (Ki) is 23 nM and the A1/A3 turned out to be 10.86.
For `CCNC(=O)[C@H]1O[C@@H](n2cnc3c(NC(=O)Nc4ccc(S(=O)(=O)NC5CC5)cc4)ncnc32)[C@H](O)[C@@H]1O` [Compound 89, 1-Deoxy-1-[6-[[[[4-[N-(cyclopropyl)aminosulfonyl]phenyl]amino]-carbonyl]-amino]-9H-purin-9-yl]-N-ethyl-β-D-ribofuranuronamide], the melting point is 180 °C (dec.). The Ki in series [1] was greater than 1000 nM. Also, the inhibition constant Ki in series [2] is greater than 1000 nM. For the same compound, the Ki in series [3] is greater than 1000 nM. Further, in series [4], the inhibition constant (Ki) was greater than 1000 nM. For the same compound, the Ki in series [5] worked out at 340 nM. The compound further gave an inhibitory constant (Ki) in series [6] of 290 nM. In series [7], the Ki is 25 nM and the A1/A3 amounted to 11.6.

Source of the values: patent US7511133B2, “Adenosine A3 receptor agonists” (King Pharmaceuticals Research and Development, Inc., priority 2003, dated 2009).
